One assay has as its system Human glioma cells GL07. Kind of assay: Antitumor effect on human glioma cells (GL07) transplanted into nude mice. It counts as in vivo. The conditions noted are these: GL07, oral, 20 mg/kg once a day for 9 days; for inhibition in vivo at 20 mg/kg: Mus musculus, Glioma cell, 216 h, read-out: TGIR, % (tumor growth inhibition rate). How it is done: Antitumor Effect on Human Glioma Cells (GL07)
Human glioma cells GL07 (obtained from Central Laboratories for Experimental Animals) were transplanted into nude mice. When the tumor volume became about 100 mm^3, the mice were grouped. In this case, grouping was carried out so that each group consisted of four mice and the average tumor volume was even among the groups. The test compound was orally or intraperitoneally administered at a dose of 20 mg/kg to the test groups every day once a day for 9 days, while the medium was administered to the control group in the manner as in the test groups. The tumor growth inhibition rate (TGIR) was calculated as follows: The tumor growth inhibition rate (TGIR)=(1−Tx/Cx)×100 wherein Cx represents the volume of tumor at day x for the control group when the tumor volume at the day of the start of the administration was presumed to be 1; and Tx represents the volume of tumor for test compound administration groups.

Another assay deals with T1, human KDR (Homo sapiens, UniProt P35968).
T1 construct: expressed in transfected cells; host or cells: NIH 3T3 cells (Sawano A et al., Cell Growth & Differentiation 7, 213-221 (1996))
T1 sequence (P35968 20-1356): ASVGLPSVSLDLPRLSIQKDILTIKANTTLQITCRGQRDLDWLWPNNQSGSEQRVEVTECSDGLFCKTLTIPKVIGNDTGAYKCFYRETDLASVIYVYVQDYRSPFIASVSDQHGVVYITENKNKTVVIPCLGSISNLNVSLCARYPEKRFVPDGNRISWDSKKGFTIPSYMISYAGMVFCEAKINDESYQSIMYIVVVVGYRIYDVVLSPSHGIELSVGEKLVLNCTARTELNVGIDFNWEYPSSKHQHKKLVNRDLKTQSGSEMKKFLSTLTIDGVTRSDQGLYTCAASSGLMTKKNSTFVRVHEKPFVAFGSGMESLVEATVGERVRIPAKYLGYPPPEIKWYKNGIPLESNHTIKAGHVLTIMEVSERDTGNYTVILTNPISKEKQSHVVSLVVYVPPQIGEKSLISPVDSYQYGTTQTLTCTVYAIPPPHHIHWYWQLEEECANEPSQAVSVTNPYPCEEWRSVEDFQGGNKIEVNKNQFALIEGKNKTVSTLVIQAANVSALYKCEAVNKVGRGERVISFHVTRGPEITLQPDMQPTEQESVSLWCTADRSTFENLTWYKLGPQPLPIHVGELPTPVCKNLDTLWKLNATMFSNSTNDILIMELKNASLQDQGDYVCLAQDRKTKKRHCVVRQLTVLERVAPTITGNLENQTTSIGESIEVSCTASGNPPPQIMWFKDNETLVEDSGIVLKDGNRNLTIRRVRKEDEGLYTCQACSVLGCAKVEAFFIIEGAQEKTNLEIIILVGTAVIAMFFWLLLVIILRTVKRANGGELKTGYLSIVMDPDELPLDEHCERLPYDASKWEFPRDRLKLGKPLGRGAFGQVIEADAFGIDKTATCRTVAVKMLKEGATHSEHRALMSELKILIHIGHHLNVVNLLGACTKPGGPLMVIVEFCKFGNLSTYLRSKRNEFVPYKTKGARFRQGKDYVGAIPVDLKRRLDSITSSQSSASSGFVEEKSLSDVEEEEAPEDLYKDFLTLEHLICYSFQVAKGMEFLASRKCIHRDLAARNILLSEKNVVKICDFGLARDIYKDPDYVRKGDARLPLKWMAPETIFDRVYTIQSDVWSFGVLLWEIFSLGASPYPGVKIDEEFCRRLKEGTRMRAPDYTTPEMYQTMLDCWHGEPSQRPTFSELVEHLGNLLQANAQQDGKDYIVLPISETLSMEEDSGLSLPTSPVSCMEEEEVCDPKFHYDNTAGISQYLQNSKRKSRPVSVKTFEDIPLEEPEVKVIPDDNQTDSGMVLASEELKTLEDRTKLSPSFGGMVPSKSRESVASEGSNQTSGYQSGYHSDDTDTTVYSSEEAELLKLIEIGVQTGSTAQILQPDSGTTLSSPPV
As to the kind of experiment: Inhibitory activity against KDR phosphorylation by ELISA. It counts as cell-based. The conditions noted are these: NIH 3T3 cells transfected with human KDR, VEGF 100 ng/ml. How it is done: Measurement of Inhibitory Activity Against KDR Phosphorylation by ELISA
NIH 3T3 cells (Sawano A et al., Cell Growth & Differentation, 7, 213–221 (1996), “Flt-1 but not KDR/Flk-1 tyrosine kinase is a receptor for placenta growth factor, which is related to vascular endothelial growth factor”) prepared by transfection of human KDR were cultured in a DMEM medium containing 10% fetal calf serum (purchased from GIBCO BRL) within a 5% carbon dioxide incubator until 50 to 70% confluent. The harvested cells were inoculated into wells, containing the same medium, in a collagen-type one-coat 96-well flat-bottom plate in an amount of 1.5×10^4 per well, followed by cultivation at 37° C. overnight. The medium was then replaced by a DMEM medium containing 0.1% fetal calf serum. A solution of the test compound in dimethyl sulfoxide was added to each well, and the cultivation was continued at 37° C. for additional one hr. A human recombinant vascular endothelial growth factor (hereinafter abbreviated to “VEGF”) was added to a final concentration of 100 ng/ml, and the stimulation of cells was carried out at 37° C. for 2 min. The medium was removed, the cells were washed with phosphate buffered saline (pH 7.4), and 50 μl of a solubilization buffer (20 mM HEPES (pH 7.4), 150 mM NaCl, 0.2% Triton X-100, 10% glycerol, 5 mM sodium orthovanadylate, 5 mM disodium ethylenediaminetetraacetate, and 2 mM Na4P2O7) was then added thereto. The mixture was shaken at 4° C. for 2 hr to prepare a cell extract.
Separately, phosphate buffered saline (50 μl, pH 7.4) containing […] of anti-phospho-tyrosine antibody (PY20; purchased from Transduction Laboratories) was added to a microplate for ELISA (Maxisorp; purchased from NUNC), followed by standing at 4° C. overnight to form a solid phase on the wells. After washing of the plate, 300 μl of a blocking solution was added, followed by standing at room temperature for 2 hr to perform blocking. After washing, the whole quantity of the cell extract was transferred to the wells, and the plate was then allowed to stand at 4° C. overnight. After washing, an anti-KDR antibody (purchased from Santa Cruz) was allowed to react at room temperature for one hr, and, after washing, a peroxidase-labeled anti-rabbit Ig antibody (purchased from Amersham) was allowed to react at room temperature for one hr. After washing, a chromophoric substrate for peroxidase (purchased from Sumitomo Bakelite Co., Ltd.) was added thereto to initiate a reaction. After a suitable level of color development, a reaction termination solution was added to stop the reaction, and the absorbance at 450 nm was measured with a microplate reader. The KDR phosphorylation activity for each well was determined by presuming the absorbance with the addition of VEGF and without the addition of the medicament to be 100% KDR phosphorylation activity and the absorbance without the medicament and VEGF to be 0% KDR phosphorylation activity. The concentration of the test compound was varied on several levels, the inhibition (%) of KDR phosphorylation was determined for each case, and the concentration of the test compound necessary for inhibiting 50% of KDR phosphorylation (IC50) was calculated.

In the case of `CCCNC(=O)Nc1ccc(Oc2ncnc3cc(OC)c(OCCN4CCN(C)CC4)cc23)cc1Cl` [Example 136, N-[2-Chloro-4-({7-methoxy-6-[2-(4-methylpiperazino)ethoxy]-4-quinazolinyl}oxy)phenyl]-N′-propylurea], the inhibition in vivo at 20 mg/kg with Human glioma cells GL07 turned out to be 23%. At human KDR, this compound registered an IC50 of 160 nM.
Take `CCCNC(=O)Nc1ccc(Oc2ncnc3cc(OCCCN4CCN(C)CC4)c(OC)cc23)cc1Cl` [Example 130, N-[2-Chloro-4-({6-methoxy-7-[3-(4-methylpiperazino)propoxy]-4-quinazolinyl}oxy)phenyl]-N′-propylurea]: the inhibition in vivo at 20 mg/kg in the assay on Human glioma cells GL07 turned out to be 32%.
As for `COc1cc2c(Oc3ccc(NC(=O)Nc4ccc(F)cc4F)c(Cl)c3)ccnc2cc1OCCN(C)CCO` [Example 167, N-{2-Chloro-4-[(7-{2-[(2-hydroxyethyl)-(methyl)amino]ethoxy}-6-methoxy-4-guinolyl)oxy]phenyl}-N′-(2,4-difluorophenyl)urea], the inhibition in vivo at 20 mg/kg in the assay with Human glioma cells GL07 is 28%. This compound also had an IC50 at human KDR of 2.1 nM.
In the case of `CCCN(CC)C(=O)Nc1ccc(Oc2ncnc3cc(OC)c(OC)cc23)cc1Cl` [Example 112, N′-{2-Chloro-4-[(6,7-dimethoxy-4-quinazolinyl)oxy]phenyl}-N-ethyl-N-propylurea], the inhibition in vivo at 20 mg/kg with Human glioma cells GL07 is 81%. This compound showed an IC50 at human KDR greater than 1000 nM.
For `CCCNC(=O)Nc1ccc(Oc2ccnc3cc(OCCCN4CCN(C)CC4)c(OC)cc23)cc1Cl` [Example 152, N-[2-chloro-4-(6-methoxy-7-{[3-(4-methylpiperazino)propoxy]-4-quinolyl}oxy)phenyl]-N′-propylurea] the same measures were 44% and 0.8 nM.
The like results for `CCN(CC)C(=O)Nc1ccc(Oc2ncnc3cc(OCCn4ccnn4)c(OC)cc23)cc1Cl` [Example 131, N′-[2-Chloro-4-({6-methoxy-7-[2-(1H-1,2,3-triazol-1-yl)ethoxy]-4-quinazolinyl}oxy)phenyl]-N,N-diethylurea] were, in that order, 31% and greater than 1000 nM.
For `COc1ccccc1NC(=O)Nc1ccc(Oc2ncnc3cc(OC)c(OC)cc23)c(C)c1` [Example 101, N-{4-[(6,7-Dimethoxy-4-quinazolinyl)oxy]-3-methylphenyl}-N′-(2-methoxyphenyl)urea] the same measures were 44% and 3 nM.
Consider `CCCNC(=O)Nc1ccc(Oc2ccnc3cc(OCCn4ccnn4)c(OC)cc23)cc1Cl` [Example 145, N-[2-chloro-4-(6-methoxy-7-{[2-(1H-1,2,3-triazol-1-yl)ethoxy]-4-quinolyl}oxy)phenyl]-N′-propylurea], for which the inhibition in vivo at 20 mg/kg in the assay with Human glioma cells GL07 came to 57%. The same compound displayed an IC50 on human KDR of 0.8 nM.
The like results for `CCCNC(=O)Nc1ccc(Oc2ccnc3cc(OCCN4CCN(C)CC4)c(OC)cc23)cc1Cl` [Example 148, N-[2-chloro-4-(6-methoxy-7-{[2-(4-methylpiperazino)ethoxy]-4-quinolyl}oxy)phenyl]-N′-propylurea] were, in that order, 54% and 15 nM.
The like results for `CCCNC(=O)Nc1ccc(Oc2ccnc3cc(OCCN(CCO)CCO)c(OC)cc23)cc1Cl` [Example 155, N-{2-Chloro-4-[(7-{2-[di(2-hydroxyethyl)-amino]ethoxy}-6-methoxy-4-guinolyl)oxy]phenyl}-N-propylurea] were, in that order, 29% and 2.1 nM.
On to `CCCNC(=O)Nc1ccc(Oc2ncnc3cc(OCCCN4CCOCC4)c(OC)cc23)cc1OC` [Example 171, N-(2-Methoxy-4-{[6-methoxy-7-(3-morpholinopropoxy)-4-quinazolinyl]oxy}phenyl)-N′-propylurea], for which the inhibition in vivo at 20 mg/kg in the assay with Human glioma cells GL07 turned out to be 13%.
On the same count and under the same terms, the value for `CCCNC(=O)Nc1ccc(Oc2ncnc3cc(OCCN(C)CCO)c(OC)cc23)cc1Cl` [Example 129, N-{2-Chloro-4-[(7-{2-[(2-hydroxyethyl)-(methyl)amino]ethoxy}-6-methoxy-4-quinazolinyl)oxy]-phenyl}-N′-propylurea] was 25%.
At human KDR, `CNC(=O)Nc1ccc(Oc2ncnc3cc(OC)c(OC)cc23)cc1Cl` [Example 117, N-{2-chloro-4-[(6,7-dimethoxy-4-quinazolinyl)oxy]phenyl}-N′-methylurea] registered an IC50 of 24 nM.
Still for that read-out and setting: as for `CCCCNC(=O)Nc1ccc(Oc2ncnc3cc(OC)c(OC)cc23)cc1[N+](=O)[O-]` [Example 108, N-Butyl-N′-{4-[(6,7-dimethoxy-4-quinazolinyl)oxy]-2-nitrophenyl}urea], the figure is 5 nM.
On to `CCCNC(=O)Nc1ccc(Oc2ccnc3cc(OCc4ccncc4)c(OC)cc23)cc1OC` [Example 174, N-(2-Methoxy-4-{[6-methoxy-7-(4-pyridylmethoxy)-4-guinolyl]oxy}phenyl)-N′-propylurea], for which the “TGIR, % (tumor growth inhibition rate)” value in the assay on Human glioma cells GL07 amounted to 19%.
Consider `CCCNC(=O)N(COC)c1ccc(Oc2ncnc3cc(OC)c(OC)cc23)cc1Cl` [Example 109, N-{2-Chloro-4-[(6,7-dimethoxy-4-quinazolinyl)oxy]phenyl}-N-methoxymethyl-N′-propylurea], for which, in the assay on Human glioma cells GL07, the inhibition in vivo at 20 mg/kg is 71%.
As for `COc1cc(Oc2ncnc3cc(OCCCN4CCOCC4)c(OC)cc23)ccc1NC(=O)Nc1ccc(F)cc1F` [Example 172, N-(2,4-Difluorophenyl)-N′-(2-methoxy-4-{[6-methoxy-7-(3-morpholinopropoxy)-4-quinazolinyl]oxy}-phenyl)urea], the inhibition in vivo at 20 mg/kg in the assay on Human glioma cells GL07 is 42%.
In the case of `CCCNC(=O)Nc1ccc(Oc2ncnc3cc(OC)c(OC)cc23)cc1F` [Example 88, N-{4-[(6,7-Dimethoxy-4-quinazolinyl)oxy]-2-fluorophenyl}-N′-propylurea], it took 61 nM to reach half-maximal inhibition at human KDR (IC50).
Still for that read-out and setting: as for `C#CCNC(=O)Nc1ccc(Oc2ncnc3cc(OC)c(OC)cc23)cc1Cl` [Example 81, N-{2-Chloro-4-[(6,7-dimethoxy-4-quinazolinyl)oxy]phenyl}-N′-(2-propynyl)urea], the figure is 4.1 nM.
On to `CCCNC(=O)Nc1ccc(Oc2ncnc3cc(OCCN4CCN(C)CC4)c(OC)cc23)cc1Cl` [Example 128, N-[2-Chloro-4-({6-methoxy-7-[2-(4-methylpiperazino)ethoxy]-4-quinazolinyl}oxy)phenyl]-N′-propylurea], for which the inhibition in vivo at 20 mg/kg in the assay on Human glioma cells GL07 stood at 21%.
Same read-out and setting: as for `COc1cc2c(Oc3ccc(NC(=O)Nc4ccc(F)cc4F)c(Cl)c3)ccnc2cc1OCCN1CCOCC1` [Example 51, N-(2-chloro-4-{[6-methoxy-7-(2-morpholinoethoxy)-4-quinolyl]oxy}phenyl)-N′-(2,4-difluorophenyl)urea], the figure is 65%.
Compound `COc1cc2ncnc(Oc3ccc(NC(=O)N(C)C)c(Cl)c3)c2cc1OC` [Example 118, N′-{2-Chloro-4-[(6,7-dimethoxy-4-quinazolinyl)oxy]phenyl}-N,N-dimethylurea] showed an IC50 against human KDR greater than 1000 nM.
As to `CCCNC(=O)Nc1ccc(Oc2ccnc3cc(OCCCN4CCOCC4)c(OC)cc23)cc1OC` [Example 173, N-(2-Methoxy-4-{[6-methoxy-7-(3-morpholinopropoxy)-4-quinolyl]oxy}phenyl)-N′-propylurea], the inhibition in vivo at 20 mg/kg in the assay with Human glioma cells GL07 worked out at 21%.

Values taken from patent US7169789B2 (Kirin Beer Kabushiki Kaisha, priority 1999, dated 2007).
